Data from patent US10710978B2, “STK4 inhibitors for treatment of hematologic malignancies” (Dana-Farber Cancer Institute, Inc., priority 2015, dated 2020).
Where two headings read alike, the source gives them in different places.

Experiments:
Assay in all cases: KiNativ assay
Type in all cases: binding
[1] = biological target: AurB (Homo sapiens (Human), UniProt Q96GD4); conditions: H929 live cell
Description: (§1) Biochemical IC50s of the compounds of the present disclosure against various kinases were measured in a KiNativ assay. Compounds were screened in duplicate at 10 μM in H929 live cell. IC50 was measured via Mass spectroscopy (MS).

[2] = biological target: CaMK2d (Homo sapiens (Human), UniProt Q13557); conditions: H929 live cell
Description: as §1

[3] = biological target: CaMK2g (Homo sapiens (Human), UniProt Q13555); conditions: H929 live cell
Description: as §1

[4] = biological target: CaMKK2 (Homo sapiens (Human), UniProt Q96RR4); conditions: H929 live cell
Description: as §1

[5] = biological target: Erk2 (Homo sapiens (Human), UniProt P28482); conditions: H929 live cell
Description: as §1

[6] = biological target: FER (Homo sapiens (Human), UniProt P16591); conditions: H929 live cell
Description: as §1

[7] = biological target: GCN2 domain2 (Homo sapiens (Human), UniProt Q9P2K8); conditions: H929 live cell
Description: as §1

[8] = biological target: GSK3A (Homo sapiens (Human), UniProt P49840); conditions: H929 live cell
Description: as §1

[9] = biological target: GSK3B (Homo sapiens (Human), UniProt P49841); conditions: H929 live cell
Description: as §1

[10] = biological target: IKKb (Homo sapiens (Human), UniProt O14920); conditions: H929 live cell
Description: as §1

[11] = biological target: ILK (Homo sapiens (Human), UniProt Q13418); conditions: H929 live cell
Description: as §1

[12] = biological target: IRE1 (Homo sapiens (Human), UniProt O75460); conditions: H929 live cell
Description: as §1

[13] = system: JNK1, JNK2, JNK3; conditions: H929 live cell
Description: as §1

[14] = biological target: LATS1 (Homo sapiens (Human), UniProt O95835); conditions: H929 live cell
Description: as §1

[15] = biological target: LKB1 (Homo sapiens (Human), UniProt Q15831); conditions: H929 live cell
Description: as §1

[16] = biological target: LYN (Homo sapiens (Human), UniProt P07948); conditions: H929 live cell
Description: as §1

[17] = system: MAP2K1, MAP2K2; conditions: 10 μM, H929 live cell; range class
Description: as §1

[18] = biological target: MAP3K2 (Homo sapiens (Human), UniProt Q9Y2U5); conditions: H929 live cell
Description: as §1

[19] = system: MAP3K2, MAP3K3; conditions: H929 live cell
Description: as §1

[20] = biological target: MLKL (Homo sapiens (Human), UniProt Q8NB16); conditions: H929 live cell
Description: as §1

[21] = system: NEK6, NEK7; conditions: H929 live cell
Description: as §1

[22] = biological target: NEK8 (Homo sapiens (Human), UniProt Q86SG6); conditions: H929 live cell
Description: as §1

[23] = biological target: NuaK2 (Homo sapiens (Human), UniProt Q9H093); conditions: H929 live cell
Description: as §1

[24] = biological target: PEK (Homo sapiens (Human), UniProt Q9NZJ5); conditions: H929 live cell
Description: as §1

[25] = biological target: PIP4K2A (Homo sapiens (Human), UniProt P48426); conditions: H929 live cell
Description: as §1

[26] = biological target: PKCz (Homo sapiens (Human), UniProt Q05513); conditions: H929 live cell
Description: as §1

[27] = biological target: PKD3 (Homo sapiens (Human), UniProt O94806); conditions: H929 live cell
Description: as §1

[28] = biological target: PRPK (Homo sapiens (Human), UniProt Q96S44); conditions: H929 live cell
Description: as §1

[29] = biological target: RSK1 domain1 (Homo sapiens (Human), UniProt Q15418); conditions: H929 live cell
Description: as §1

[30] = biological target: SNRK (Homo sapiens (Human), UniProt Q9NRH2); conditions: H929 live cell
Description: as §1

[31] = biological target: STLK5 (Homo sapiens (Human), UniProt Q7RTN6); conditions: H929 live cell
Description: as §1

[32] = system: TAO1, TAO3; conditions: H929 live cell
Description: as §1

[33] = biological target: ZAK (Homo sapiens (Human), UniProt Q9NYL2); conditions: H929 live cell
Description: as §1

[34] = system: ZC1/HGK, ZC2/TNIK, ZC3/MINK; conditions: H929 live cell
Description: as §1

[35] = range class, read-out: % inhibition

Sequence of IKKb (O14920 whole entry): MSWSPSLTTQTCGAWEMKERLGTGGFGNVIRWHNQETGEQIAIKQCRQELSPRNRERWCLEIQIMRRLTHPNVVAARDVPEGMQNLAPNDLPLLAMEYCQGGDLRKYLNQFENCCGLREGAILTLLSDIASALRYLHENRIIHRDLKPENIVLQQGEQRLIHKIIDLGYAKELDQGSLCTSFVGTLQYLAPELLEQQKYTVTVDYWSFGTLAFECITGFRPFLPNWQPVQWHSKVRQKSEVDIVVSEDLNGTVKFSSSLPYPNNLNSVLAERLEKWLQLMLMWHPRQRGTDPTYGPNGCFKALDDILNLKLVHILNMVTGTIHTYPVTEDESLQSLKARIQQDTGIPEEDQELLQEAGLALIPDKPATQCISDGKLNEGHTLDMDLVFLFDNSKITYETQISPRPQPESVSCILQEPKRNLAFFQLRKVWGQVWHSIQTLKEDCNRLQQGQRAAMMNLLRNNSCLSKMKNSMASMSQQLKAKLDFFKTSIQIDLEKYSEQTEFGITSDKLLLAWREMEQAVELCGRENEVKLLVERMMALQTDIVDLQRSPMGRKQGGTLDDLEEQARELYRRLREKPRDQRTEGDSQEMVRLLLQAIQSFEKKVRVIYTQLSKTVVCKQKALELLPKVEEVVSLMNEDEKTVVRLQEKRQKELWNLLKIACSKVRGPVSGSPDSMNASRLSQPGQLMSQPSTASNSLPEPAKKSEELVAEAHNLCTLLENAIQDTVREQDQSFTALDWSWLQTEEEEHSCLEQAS
Sequence of MAP3K2 (Q9Y2U5 whole entry): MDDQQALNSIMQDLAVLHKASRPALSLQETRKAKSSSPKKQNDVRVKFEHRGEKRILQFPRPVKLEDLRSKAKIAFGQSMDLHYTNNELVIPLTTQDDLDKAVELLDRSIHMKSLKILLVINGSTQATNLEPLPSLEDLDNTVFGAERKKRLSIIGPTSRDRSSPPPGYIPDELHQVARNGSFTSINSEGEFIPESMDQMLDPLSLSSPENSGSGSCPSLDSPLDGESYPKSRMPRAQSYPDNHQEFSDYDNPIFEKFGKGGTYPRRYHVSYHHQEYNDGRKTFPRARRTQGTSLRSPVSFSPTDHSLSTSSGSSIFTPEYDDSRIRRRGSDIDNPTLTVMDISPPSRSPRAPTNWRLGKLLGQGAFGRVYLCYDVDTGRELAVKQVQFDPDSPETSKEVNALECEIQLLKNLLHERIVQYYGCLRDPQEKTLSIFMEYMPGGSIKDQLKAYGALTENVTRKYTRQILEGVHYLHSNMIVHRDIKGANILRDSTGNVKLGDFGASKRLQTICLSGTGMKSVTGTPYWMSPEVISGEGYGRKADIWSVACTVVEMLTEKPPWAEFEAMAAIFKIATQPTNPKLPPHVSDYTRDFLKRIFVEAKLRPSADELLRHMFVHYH
Sequence of PRPK (Q96S44 whole entry): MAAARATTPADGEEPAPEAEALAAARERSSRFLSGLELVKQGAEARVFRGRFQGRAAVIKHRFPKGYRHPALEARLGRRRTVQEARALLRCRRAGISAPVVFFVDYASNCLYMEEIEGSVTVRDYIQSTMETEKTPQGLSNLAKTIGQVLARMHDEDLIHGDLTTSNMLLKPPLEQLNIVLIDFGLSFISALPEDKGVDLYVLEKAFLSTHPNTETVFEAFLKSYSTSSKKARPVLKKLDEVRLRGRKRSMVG
Sequence of Erk2 (P28482 whole entry): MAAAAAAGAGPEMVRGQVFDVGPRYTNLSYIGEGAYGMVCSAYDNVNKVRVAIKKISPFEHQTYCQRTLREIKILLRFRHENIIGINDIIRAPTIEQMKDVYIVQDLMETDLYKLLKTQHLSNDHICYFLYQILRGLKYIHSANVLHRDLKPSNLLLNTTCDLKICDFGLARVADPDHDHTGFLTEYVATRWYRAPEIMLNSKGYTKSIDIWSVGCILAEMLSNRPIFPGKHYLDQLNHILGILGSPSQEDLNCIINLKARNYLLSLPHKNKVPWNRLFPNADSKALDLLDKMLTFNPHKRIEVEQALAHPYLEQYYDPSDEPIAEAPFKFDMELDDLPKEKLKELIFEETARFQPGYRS
Sequence of PEK (Q9NZJ5 30-1116): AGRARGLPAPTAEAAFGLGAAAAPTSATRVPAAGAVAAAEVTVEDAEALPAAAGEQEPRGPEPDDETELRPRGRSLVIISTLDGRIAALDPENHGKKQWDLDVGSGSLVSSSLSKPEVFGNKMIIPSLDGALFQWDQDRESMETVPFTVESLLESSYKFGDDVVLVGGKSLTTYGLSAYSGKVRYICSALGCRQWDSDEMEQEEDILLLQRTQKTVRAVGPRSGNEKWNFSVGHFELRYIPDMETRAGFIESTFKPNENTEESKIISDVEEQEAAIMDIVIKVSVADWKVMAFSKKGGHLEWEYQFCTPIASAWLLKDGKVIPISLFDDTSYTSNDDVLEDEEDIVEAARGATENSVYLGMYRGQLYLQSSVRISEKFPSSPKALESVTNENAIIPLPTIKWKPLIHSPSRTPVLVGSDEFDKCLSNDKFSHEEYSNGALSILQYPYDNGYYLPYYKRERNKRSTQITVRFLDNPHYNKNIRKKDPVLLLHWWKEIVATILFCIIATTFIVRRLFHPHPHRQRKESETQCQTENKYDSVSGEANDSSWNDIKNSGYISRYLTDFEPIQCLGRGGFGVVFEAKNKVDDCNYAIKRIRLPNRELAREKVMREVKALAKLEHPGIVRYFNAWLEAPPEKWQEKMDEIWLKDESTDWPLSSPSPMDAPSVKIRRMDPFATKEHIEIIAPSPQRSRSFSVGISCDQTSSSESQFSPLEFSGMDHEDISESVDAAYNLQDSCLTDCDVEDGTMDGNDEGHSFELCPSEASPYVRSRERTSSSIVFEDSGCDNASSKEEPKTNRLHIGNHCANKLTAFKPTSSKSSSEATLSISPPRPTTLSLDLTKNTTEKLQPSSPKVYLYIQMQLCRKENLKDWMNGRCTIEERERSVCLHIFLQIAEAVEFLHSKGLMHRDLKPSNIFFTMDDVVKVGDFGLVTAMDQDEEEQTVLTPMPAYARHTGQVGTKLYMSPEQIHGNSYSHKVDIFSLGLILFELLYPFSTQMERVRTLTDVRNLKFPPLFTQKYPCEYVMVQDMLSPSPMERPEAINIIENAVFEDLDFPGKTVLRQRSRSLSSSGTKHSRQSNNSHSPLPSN
Sequence of NEK8 (Q86SG6 whole entry): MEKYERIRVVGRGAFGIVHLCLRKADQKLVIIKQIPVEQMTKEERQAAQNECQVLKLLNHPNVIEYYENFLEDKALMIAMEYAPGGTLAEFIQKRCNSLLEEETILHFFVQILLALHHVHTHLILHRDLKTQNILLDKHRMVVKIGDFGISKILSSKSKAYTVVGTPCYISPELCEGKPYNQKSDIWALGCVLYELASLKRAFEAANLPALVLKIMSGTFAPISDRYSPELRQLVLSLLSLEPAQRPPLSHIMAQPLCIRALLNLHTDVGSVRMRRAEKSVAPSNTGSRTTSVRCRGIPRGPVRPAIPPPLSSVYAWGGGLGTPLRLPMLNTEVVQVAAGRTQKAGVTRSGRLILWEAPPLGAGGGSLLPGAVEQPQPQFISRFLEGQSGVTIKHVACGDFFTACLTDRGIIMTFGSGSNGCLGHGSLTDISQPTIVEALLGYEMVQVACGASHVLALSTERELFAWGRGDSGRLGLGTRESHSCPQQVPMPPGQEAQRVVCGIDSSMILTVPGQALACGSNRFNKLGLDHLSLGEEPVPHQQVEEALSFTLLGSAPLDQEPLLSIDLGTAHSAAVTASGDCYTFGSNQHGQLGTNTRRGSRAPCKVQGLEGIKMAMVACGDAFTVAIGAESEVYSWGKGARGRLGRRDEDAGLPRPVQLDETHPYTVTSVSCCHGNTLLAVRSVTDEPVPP
Sequence of ZAK (Q9NYL2 whole entry): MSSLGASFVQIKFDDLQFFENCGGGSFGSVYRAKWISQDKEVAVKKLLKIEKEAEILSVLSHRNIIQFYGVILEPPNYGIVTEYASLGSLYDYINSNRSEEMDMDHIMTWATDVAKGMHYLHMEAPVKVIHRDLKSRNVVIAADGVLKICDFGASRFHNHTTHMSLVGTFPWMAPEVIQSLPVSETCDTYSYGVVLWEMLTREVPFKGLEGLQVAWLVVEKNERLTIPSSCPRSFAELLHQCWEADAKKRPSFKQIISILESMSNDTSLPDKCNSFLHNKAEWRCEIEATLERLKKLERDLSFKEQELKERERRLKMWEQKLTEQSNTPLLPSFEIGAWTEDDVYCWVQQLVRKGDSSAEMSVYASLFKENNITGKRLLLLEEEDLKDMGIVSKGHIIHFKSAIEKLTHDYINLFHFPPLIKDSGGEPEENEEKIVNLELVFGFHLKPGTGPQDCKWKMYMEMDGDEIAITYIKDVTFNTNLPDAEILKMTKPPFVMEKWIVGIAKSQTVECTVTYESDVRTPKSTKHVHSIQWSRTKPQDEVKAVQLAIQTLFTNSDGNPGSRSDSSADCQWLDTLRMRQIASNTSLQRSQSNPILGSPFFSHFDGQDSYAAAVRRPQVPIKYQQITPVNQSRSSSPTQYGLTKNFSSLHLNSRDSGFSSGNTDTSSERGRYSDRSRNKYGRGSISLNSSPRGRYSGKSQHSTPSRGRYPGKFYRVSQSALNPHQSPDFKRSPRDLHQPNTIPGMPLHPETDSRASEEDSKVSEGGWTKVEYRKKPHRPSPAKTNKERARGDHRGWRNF
Sequence of PIP4K2A (P48426 whole entry): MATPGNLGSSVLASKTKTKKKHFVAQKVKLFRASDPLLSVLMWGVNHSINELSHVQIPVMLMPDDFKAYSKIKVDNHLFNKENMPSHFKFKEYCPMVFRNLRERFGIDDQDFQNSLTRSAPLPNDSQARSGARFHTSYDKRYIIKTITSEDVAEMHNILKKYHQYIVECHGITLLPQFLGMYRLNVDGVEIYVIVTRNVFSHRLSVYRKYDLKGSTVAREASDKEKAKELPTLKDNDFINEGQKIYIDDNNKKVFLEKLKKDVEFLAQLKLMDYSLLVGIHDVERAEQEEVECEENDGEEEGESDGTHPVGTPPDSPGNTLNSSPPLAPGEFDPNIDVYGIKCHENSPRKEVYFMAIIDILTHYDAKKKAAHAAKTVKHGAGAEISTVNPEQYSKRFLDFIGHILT

SMILES: Nc1ncc(-c2ccc(NS(=O)(=O)C3CC3)cc2OC2CCCCC2)cc1-c1ccc2c(c1)CCNC2=O [Compound I-65, N-(4-(6-amino-5-(1-oxo-1,2,3,4-tetrahydroisoquinolin-6-yl)pyridin-3-yl)-3-(cyclohexyloxy)phenyl) cyclopropanesulfonamide]
- inhibition at 10 µM [1, 35]: 0%
- inhibition at 10 µM ([1]; read-out: inhibition (10 μM)): 21%
- inhibition at 10 µM [2, 35]: 0%
- inhibition at 10 µM ([2]; read-out: inhibition (10 μM)): 4.2%
- inhibition at 10 µM [3, 35]: 0%
- inhibition at 10 µM ([3]; read-out: inhibition (10 μM)): -12%
- inhibition at 10 µM [4, 35]: 75 to 90%
- inhibition at 10 µM ([4]; read-out: inhibition (10 μM)): 85.6%
- inhibition at 10 µM [5, 35]: 0%
- inhibition at 10 µM ([5]; read-out: inhibition (10 μM)): -29.6%
- inhibition at 10 µM [6, 35]: 50 to 75%
- inhibition at 10 µM ([6]; read-out: inhibition (10 μM)): 63.6%
- inhibition at 10 µM [7, 35]: 35 to 40%
- inhibition at 10 µM ([7]; read-out: inhibition (10 μM)): 43.5%
- inhibition at 10 µM [8, 35]: 75 to 90%
- inhibition at 10 µM ([8]; read-out: inhibition (10 μM)): 86%
- inhibition at 10 µM [9, 35]: > 90%
- inhibition at 10 µM ([9]; read-out: inhibition (10 μM)): 90%
- inhibition at 10 µM [10, 35]: 0%
- inhibition at 10 µM ([10]; read-out: inhibition (10 μM)): -36%
- inhibition at 10 µM [11, 35]: 0%
- inhibition at 10 µM ([11]; read-out: inhibition (10 μM)): -35%
- inhibition at 10 µM [12, 35]: 0%
- inhibition at 10 µM ([12]; read-out: inhibition (10 μM)): -6.3%
- % inhibition ([13]; 10 μM, range class): 0.0%
- inhibition (10 μM) [13]: 6.4%
- inhibition at 10 µM [14, 35]: 0%
- inhibition at 10 µM ([14]; read-out: inhibition (10 μM)): 33.8%
- inhibition at 10 µM [15, 35]: 0%
- inhibition at 10 µM ([15]; read-out: inhibition (10 μM)): 27.4%
- inhibition at 10 µM [16, 35]: 0%
- inhibition at 10 µM ([16]; read-out: inhibition (10 μM)): -1.3%
- % inhibition [17]: 0.0%
- inhibition at 10 µM [18, 35]: 0%
- inhibition at 10 µM ([18]; read-out: inhibition (10 μM)): -3.9%
- % inhibition ([19]; 10 μM, range class): 0.0%
- inhibition (10 μM) [19]: 23.3%
- inhibition at 10 µM [20, 35]: 0%
- inhibition at 10 µM ([20]; read-out: inhibition (10 μM)): 0.2%
- % inhibition ([21]; 10 μM, range class): 0.0%
- inhibition (10 μM) [21]: −78.6%
- inhibition at 10 µM [22, 35]: 0%
- inhibition at 10 µM ([22]; read-out: inhibition (10 μM)): -1.7%
- inhibition at 10 µM [23, 35]: 35 to 40%
- inhibition at 10 µM ([23]; read-out: inhibition (10 μM)): 48.7%
- inhibition at 10 µM [24, 35]: 0%
- inhibition at 10 µM ([24]; read-out: inhibition (10 μM)): -12.9%
- inhibition at 10 µM [25, 35]: 0%
- inhibition at 10 µM ([25]; read-out: inhibition (10 μM)): -4.6%
- inhibition at 10 µM [26, 35]: 0%
- inhibition at 10 µM ([26]; read-out: inhibition (10 μM)): -12.4%
- inhibition at 10 µM [27, 35]: 0%
- inhibition at 10 µM ([27]; read-out: inhibition (10 μM)): -24.2%
- inhibition at 10 µM [28, 35]: 0%
- inhibition at 10 µM ([28]; read-out: inhibition (10 μM)): -55.9%
- inhibition at 10 µM [29, 35]: 50 to 75%
- inhibition at 10 µM ([29]; read-out: inhibition (10 μM)): 59.9%
- inhibition at 10 µM [30, 35]: 0%
- inhibition at 10 µM ([30]; read-out: inhibition (10 μM)): 1.1%
- inhibition at 10 µM [31, 35]: 0%
- inhibition at 10 µM ([31]; read-out: inhibition (10 μM)): -38.6%
- % inhibition ([32]; 10 μM, range class): 0.0%
- inhibition (10 μM) [32]: 14.4%
- inhibition at 10 µM [33, 35]: 35 to 40%
- inhibition at 10 µM ([33]; read-out: inhibition (10 μM)): 36.2%
- % inhibition ([34]; 10 μM, range class): >90%
- inhibition (10 μM) [34]: 96.6%
